Assay results: patent US20230002756A1, “High Performance Platform for Combinatorial Genetic Screening” (THE TRUSTEES OF THE UNIVERSITY OF PENNSYLVANIA, priority 2019, published 2023)
“Also recorded” adds a separate entry of the source.

Experiments:
[1] = tested on: HEK293T d2GFP reporter line; test: GFP disruption assay; format: cell-based, human; conditions: for gene editing activity / efficiency (GFP reporter disruption): HEK293T GFP reporter cell line
Description: GFP disruption assay. HEK293T cells were first lentivirally transduced with a destabilized GFP (d2GFP) reporter (derived from Addgene #14760). The resulting HEK293T d2GFP reporter line was then transiently transfected with indicated AsCas12a vector and a vector expressing GFP-targeting crRNA. This d2GFP HEK293T reporter line was used to evaluate the knockout efficiency of seven Addgene-available Cas12a systems (Butyrivibrio sp., Thiomicrospira sp. XS5, Moraxella bovoculi, Prevotella bryantii, Bacteroidetes oral, Lachnospiraceae bacterium, and Acidaminococcus). In addition, AsCas12a vector contained 1, 2, 4, or 6 SV40 or c-Myc NLS cloned into either the N- or C-terminus. The crRNA vector contained an expression marker for mCherry for successful transfection tracking. Cells were cultured for 3 days and subjected to flow cytometry to measure knockdown of GFP using the Guava Easycyte 10 HT instrument (Millipore). Percent GFP disruption is plotted. Two independent GFP-targeting crRNA are presented.

K562 cells = test: Competition-based cellular proliferation assay; format: cell-based
Description: Competition-based cellular proliferation assays. Indicated AsCas12a-expressing cell lines were infected with a lentivirus (pRG212) encoding crRNA, targeting essential genes or known cancer dependencies, linked to a GFP reporter, to track successful transduction, at a multiplicity of infection (MOI) of around 0.2-0.5. The percentage of crRNA-positive (GFP-positive) cell population was monitored over time using the Guava Easycyte 10 HT instrument (Millipore). To assess the impact of a specific single-crRNA or dual-crRNA on cellular proliferation, final time point GFP % was divided by initial time point GFP % to calculate the negative selection fold-change of the crRNA-positive cell population.
To address the low knockout efficiency in mammalian cells, the AsCas12a system was subjected to three levels of optimization. In order to evaluate the knockout efficiency of the system, AsCas12a and its crRNA were expressed using a two-vector lentiviral expression strategy and conducted a competition-based cellular proliferation assay, a reliable proxy for dropout screening (FIG. 1A, 1B). crRNAs targeting known essential genes were designed, including replication protein PCNA and cyclin-dependent kinase CDK1. AsCas12a knockout efficiency was then assessed by measuring the negative selection strength of essential gene-targeting crRNAs in a 16-day time-course. […]

Substance	gene editing activity / efficiency (GFP reporter disruption) [1]	knockout efficiency relative to SpCas9 ([1]; in human cells)	knockout efficiency (K562 cells; crRNAs targeting essential genes PCNA and CDK1, 16-day time-course)	effect on cellular proliferation (toxicity to the cells) (K562 cells; non-targeting crRNAs and crRNAs targeting introns of PCNA and CDK1)
AsCas12a: Acidaminococcus Cas12a, wild type RNA-programmable DNA endonuclease	high gene editing activity	approximately one third		
enAsCas12a: AsCas12a with E174R and S542R mutations, used with 6xNLS and dual-DR crRNA; the improved/engineered Cas12a system	comparable to Cas9		enhances knockout efficiency	no obvious effect on cellular proliferation; also recorded: does not significantly affect cellular proliferation
